Our source for the EC50 values is publication PMC12340639 (ACS Pharmacology & Translational Science, 2025).

The assay deals with ER-positive MCF7 human breast cancer cells. Put plainly: MCF7 cell proliferation assay. Format: cell-based. The following applies: MCF7, 120 h, read-out: Cell Proliferation EC50.

pEC50: −log10 of the molar value.

For `C[C@]12CC[C@@H]3c4ccc(O)cc4CC[C@H]3[C@@H]1CC[C@@H]2O` [E2, 17β-estradiol], the pEC50 was 11.49.
